A short description of data set [1]: Immunosupressive activity in OVA323-339 peptide-stimulated OT-2 T cell receptor transgenic mouse splenocytes assessed as inhibition of T cell proliferation after 3 days by MTT assay. To be noted: Splenocyte, 72 h. Type of data set: functional, cell-based. In general terms: Tetrazolium dyes change colour on reduction, which living cells bring about.
Data set [2] is described as follows: Cytotoxicity against OT-2 T cell receptor transgenic mouse splenocytes using propidium iodide by flow cytometry. Type of data set: cell-based. The settings on record: splenocyte. (In general: In flow cytometry, cells or beads pass a laser one at a time.)
A short description of data set [3]: Effect on IL-2 secretion in OVA323-339 peptide-stimulated OT-2 T cell receptor transgenic mouse T cells after 3 days by sandwich ELISA. Type of data set: cell-based. The settings on record: splenocyte, 72 h. A general note: In an ELISA, binding on a coated surface is turned into a signal by an enzyme label.
Data set [4] is described as follows: Effect on IFN-gamma secretion in OVA323-339 peptide-stimulated OT-2 T cell receptor transgenic mouse T cells after 3 days by sandwich ELISA. To be noted: splenocyte, 72 h. Type of data set: cell-based.

The structures appear in SMILES notation. Bounds are passed on as bounds.

For the compound `CCCCCCCCCC(=O)O[C@@H]1CC[C@]2(C)[C@H]3CC[C@]45C[C@]4(CC[C@H]5[C@@H]4C[C@H]([C@@H]5O[C@]5(C)CO)OC4O)[C@]3(C)[C@H](O)C[C@H]2C1(C)C` (stereo partly specified), in data set [1], the IC50 is 1800 nM. For the same compound, the Activity entry in data set [2], in data set [3] and in data set [4] was “Non-toxic” throughout.
Take `CC(C)CC(=O)O[C@@H]1CC[C@]2(C)[C@H]3CC[C@]45C[C@]4(CC[C@H]5[C@@H]4C[C@H]([C@H](O)C(C)(C)O)OC4O)[C@]3(C)[C@H](O)C[C@H]2C1(C)C` (stereo partly specified): the 50% inhibitory concentration (IC50) in data set [1] is above 20000 nM. Moreover, the Activity entry in data set [2], in data set [3] and in data set [4] was “Non-toxic” throughout.
Regarding `CC(C)CC(=O)O[C@@H]1CC[C@]2(C)[C@H]3CC[C@]45C[C@]4(CC[C@H]5[C@@H]4C[C@H]([C@@H]5O[C@]5(C)CO)OC4O)[C@]3(C)[C@H](O)C[C@H]2C1(C)C` (stereo partly specified), the half-maximal inhibitory concentration (IC50) in data set [1] came to 1500 nM. Moreover, the Activity result in data set [2], in data set [3] and in data set [4] was “Non-toxic” throughout.
Regarding `CCC(C)CCCCCCC(=O)O[C@@H]1CC[C@]2(C)[C@H]3CC[C@]45C[C@]4(CC[C@H]5[C@@H]4C[C@H]([C@@H]5O[C@]5(C)CO)OC4O)[C@]3(C)[C@H](O)C[C@H]2C1(C)C` (stereo partly specified), the IC50 in data set [1] was 1500 nM. Further, the Activity result in data set [2], in data set [3] and in data set [4] was “Non-toxic” each time.

For orientation: IC50 means the concentration that inhibits the measured activity by half.
